Laboratory results published in patent publication US11274332B2, “Methods of administering 3,4-diaminopyridine” (SERB SA, priority 2011, dated 2022).
Several values for one entry are separate records, joined by “and”; a condition that tells them apart may be missing. Equal values may be shown once.

Assay: Food-effect crossover study, adverse events after single 20 mg amifampridine phosphate in healthy subjects (Examples 10, 11)
Type: in vivo
Description: This was a randomized, open-label, 2-treatment, 2-period crossover study with 44 completed subjects to assess the safety, tolerability, and the effect of food on the relative bioavailability of a single dose of amifampridine phosphate.
Safety was evaluated for all subjects who take at least one dose of 3,4-DAP. Safety was evaluated by recording the incidence of adverse events (AEs), physical examination, vital signs, concomitant medications, clinical laboratory assessments, and 12-lead electrocardiogram (ECG).
Analysis for the following safety parameters was carried out on the Safety Population: AEs which included all AEs, AEs by severity, drug-related AEs, deaths, SAEs, AEs leading to study discontinuation, and most frequent AEs, standard clinical laboratory tests, vital signs, ECG measurements, routine physical examinations, and prior and concomitant medications. The cut-off for frequency of AEs reported was determined based on the data. No formal statistical testing was performed for the safety analyses; only descriptive statistics were provided. Appropriate descriptive statistics for the safety data were determined using SAS Version 9.2.
AEs were coded according to the Medical Dictionary for Regulatory Activities (MedDRA; Version 13.0). […] The occurrence of AEs was assessed continuously from the time the subject signed the VID and consent. The reporting period for non-serious AEs was from the first dose to the final study visit. The investigator determined the severity of each event and the relationship of an AE to the IP and recorded it on the source documents and AE CRF. The nature, time of onset, duration, severity, and relationship to study drug was documented, including documentation of investigator assessment and review. All events were assessed to determine if the AE was serious.
The Investigator determined the severity of each event and the event was recorded on the source documents and AE CRF. A coding of “mild” meant there was no limitation of usual activities, “moderate” meant there was some limitation of usual activities, “severe” meant there was an inability to carry out usual activities.
The reporting period for AEs that met the criteria of an SAE began from the time of signing the VID and consent form through follow-up or early termination. […] Clinical Laboratory Assessments

Nc1ccncc1N.O=P(O)(O)O [amifampridine phosphate, 3,4-diaminopyridine phosphate]
Abdominal Pain Upper, drug-related AE: % of subjects (Fasted N=45): 4% | Abdominal Pain Upper, drug-related AE: events (Fasted N=45): 2 | Abdominal Pain Upper, drug-related AE: subjects (Fasted N=45): 2 | Abdominal Pain, drug-related AE: % of subjects (Fasted N=45): 7% | Abdominal Pain, drug-related AE: events (Fasted N=45): 3 | Abdominal Pain, drug-related AE: subjects (Fasted N=45): 3 | Abdominal Tenderness, drug-related AE: % of subjects (Fasted N=45): 2% | Abdominal Tenderness, drug-related AE: events (Fasted N=45): 1 | Abdominal Tenderness, drug-related AE: subjects (Fasted N=45): 1 | Acne, drug-related AE: % of subjects (Fasted N=45): 2% | Acne, drug-related AE: events (Fasted N=45): 1 | Acne, drug-related AE: subjects (Fasted N=45): 1 | All treatment emergent AEs, Mild: % of subjects (Fasted N=45): 53% | All treatment emergent AEs, Mild: events (Fasted N=45): 60 | All treatment emergent AEs, Mild: subjects (Fasted N=45): 24 | All treatment emergent AEs, Moderate: % of subjects (Fasted N=45): 2% | All treatment emergent AEs, Moderate: events (Fasted N=45): 1 | All treatment emergent AEs, Moderate: subjects (Fasted N=45): 1 | All treatment emergent AEs, Severe: % of subjects (Fasted N=45): (0%) [0] | All treatment emergent AEs, Severe: events (Fasted N=45): (0%) [0] | All treatment emergent AEs, Severe: subjects (Fasted N=45): 0 | All treatment emergent AEs, Total: events (Fasted N=45): 61 | Constipation, drug-related AE: % of subjects (Fasted N=45): (0%) [0] | Constipation, drug-related AE: events (Fasted N=45): (0%) [0] | Constipation, drug-related AE: subjects (Fasted N=45): 0 | Diarrhoea, drug-related AE: % of subjects (Fasted N=45): 2% | Diarrhoea, drug-related AE: events (Fasted N=45): 1 | Diarrhoea, drug-related AE: subjects (Fasted N=45): 1 | Discontinued due to adverse events: % of subjects (Fasted N=45): (0%) [0] | Discontinued due to adverse events: events (Fasted N=45): (0%) [0] | Discontinued due to adverse events: subjects (Fasted N=45): 0 | Dizziness, drug-related AE: % of subjects (Fasted N=45): 11% | Dizziness, drug-related AE: events (Fasted N=45): 5 | Dizziness, drug-related AE: subjects (Fasted N=45): 5 | Dysgeusia, drug-related AE: % of subjects (Fasted N=45): 2% | Dysgeusia, drug-related AE: events (Fasted N=45): 1 | Dysgeusia, drug-related AE: subjects (Fasted N=45): 1 | Fatigue, drug-related AE: % of subjects (Fasted N=45): 2% | Fatigue, drug-related AE: events (Fasted N=45): 1 | Fatigue, drug-related AE: subjects (Fasted N=45): 1 | Feeling Hot, drug-related AE: % of subjects (Fasted N=45): 2% | Feeling Hot, drug-related AE: events (Fasted N=45): 1 | Feeling Hot, drug-related AE: subjects (Fasted N=45): 1 | Flushing, drug-related AE: % of subjects (Fasted N=45): (0%) [0] | Flushing, drug-related AE: events (Fasted N=45): (0%) [0] | Flushing, drug-related AE: subjects (Fasted N=45): 0 | Gastrointestinal Disorders Total, drug-related AE: % of subjects (Fasted N=45): 16% | Gastrointestinal Disorders Total, drug-related AE: events (Fasted N=45): 10 | Gastrointestinal Disorders Total, drug-related AE: subjects (Fasted N=45): 7 | General Disorders and Administration Site Conditions Total, drug-related AE: % of subjects (Fasted N=45): 4% | General Disorders and Administration Site Conditions Total, drug-related AE: events (Fasted N=45): 2 | General Disorders and Administration Site Conditions Total, drug-related AE: subjects (Fasted N=45): 2 | Headache, drug-related AE: % of subjects (Fasted N=45): 9% | Headache, drug-related AE: events (Fasted N=45): 4 | Headache, drug-related AE: subjects (Fasted N=45): 4 | Hypoaesthesia Facial, drug-related AE: % of subjects (Fasted N=45): 2% | Hypoaesthesia Facial, drug-related AE: events (Fasted N=45): 1 | Hypoaesthesia Facial, drug-related AE: subjects (Fasted N=45): 1 | Hypoaesthesia Oral, drug-related AE: % of subjects (Fasted N=45): 7% | Hypoaesthesia Oral, drug-related AE: events (Fasted N=45): 3 | Hypoaesthesia Oral, drug-related AE: subjects (Fasted N=45): 3 | Hypoaesthesia, drug-related AE: % of subjects (Fasted N=45): 4% | Hypoaesthesia, drug-related AE: events (Fasted N=45): 2 | Hypoaesthesia, drug-related AE: subjects (Fasted N=45): 2 | Nausea, drug-related AE: % of subjects (Fasted N=45): 7% | Nausea, drug-related AE: events (Fasted N=45): 3 | Nausea, drug-related AE: subjects (Fasted N=45): 3 | Nervous System Disorders Total, drug-related AE: % of subjects (Fasted N=45): 47% | Nervous System Disorders Total, drug-related AE: events (Fasted N=45): 43 | Nervous System Disorders Total, drug-related AE: subjects (Fasted N=45): 21 | Paraesthesia Oral, drug-related AE: % of subjects (Fasted N=45): 29% | Paraesthesia Oral, drug-related AE: events (Fasted N=45): 15 | Paraesthesia Oral, drug-related AE: subjects (Fasted N=45): 13 | Paraesthesia, drug-related AE: % of subjects (Fasted N=45): 22% | Paraesthesia, drug-related AE: events (Fasted N=45): 12 | Paraesthesia, drug-related AE: subjects (Fasted N=45): 10 | Possibly or probably related AEs, Mild: % of subjects (Fasted N=45): 47% | Possibly or probably related AEs, Mild: events (Fasted N=45): 55 | Possibly or probably related AEs, Mild: subjects (Fasted N=45): 21 | Possibly or probably related AEs, Moderate: % of subjects (Fasted N=45): 2% | Possibly or probably related AEs, Moderate: events (Fasted N=45): 1 | Possibly or probably related AEs, Moderate: subjects (Fasted N=45): 1 | Possibly or probably related AEs, Severe: % of subjects (Fasted N=45): (0%) [0] | Possibly or probably related AEs, Severe: events (Fasted N=45): (0%) [0] | Possibly or probably related AEs, Severe: subjects (Fasted N=45): 0 | Possibly or probably related AEs, Total: % of subjects (Fasted N=45): 47% | Possibly or probably related AEs, Total: events (Fasted N=45): 56 | Possibly or probably related AEs, Total: subjects (Fasted N=45): 21 | Serious adverse events: % of subjects (Fasted N=45): (0%) [0] | Serious adverse events: events (Fasted N=45): (0%) [0] | Serious adverse events: subjects (Fasted N=45): 0 | Skin and Subcutaneous Tissue Disorders Total, drug-related AE: % of subjects (Fasted N=45): 2% | Skin and Subcutaneous Tissue Disorders Total, drug-related AE: events (Fasted N=45): 1 | Skin and Subcutaneous Tissue Disorders Total, drug-related AE: subjects (Fasted N=45): 1 | Vascular Disorders Total, drug-related AE: % of subjects (Fasted N=45): (0%) [0] | Vascular Disorders Total, drug-related AE: events (Fasted N=45): (0%) [0] | Vascular Disorders Total, drug-related AE: subjects (Fasted N=45): 0 | All treatment emergent AEs, Total: subjects (Fasted N=45, phosphate): 23 and 24 | Abdominal Pain Upper, drug-related AE: % of subjects (Fed N=46): (0%) [0] | Abdominal Pain Upper, drug-related AE: events (Fed N=46): (0%) [0] | Abdominal Pain Upper, drug-related AE: subjects (Fed N=46): 0 | Abdominal Pain, drug-related AE: % of subjects (Fed N=46): (0%) [0] | Abdominal Pain, drug-related AE: events (Fed N=46): (0%) [0] | Abdominal Pain, drug-related AE: subjects (Fed N=46): 0 | Abdominal Tenderness, drug-related AE: % of subjects (Fed N=46): (0%) [0] | Abdominal Tenderness, drug-related AE: events (Fed N=46): (0%) [0] | Abdominal Tenderness, drug-related AE: subjects (Fed N=46): 0 | Acne, drug-related AE: % of subjects (Fed N=46): (0%) [0] | Acne, drug-related AE: events (Fed N=46): (0%) [0] | Acne, drug-related AE: subjects (Fed N=46): 0 | All treatment emergent AEs, Mild: % of subjects (Fed N=46): 48% | All treatment emergent AEs, Mild: events (Fed N=46): 38 | All treatment emergent AEs, Mild: subjects (Fed N=46): 22 | All treatment emergent AEs, Moderate: % of subjects (Fed N=46): 2% | All treatment emergent AEs, Moderate: events (Fed N=46): 1 | All treatment emergent AEs, Moderate: subjects (Fed N=46): 1 | All treatment emergent AEs, Severe: % of subjects (Fed N=46): 2% | All treatment emergent AEs, Severe: events (Fed N=46): 1 | All treatment emergent AEs, Severe: subjects (Fed N=46): 1 | All treatment emergent AEs, Total: events (Fed N=46): 40 | Constipation, drug-related AE: % of subjects (Fed N=46): 2% | Constipation, drug-related AE: events (Fed N=46): 1 | Constipation, drug-related AE: subjects (Fed N=46): 1
